Results: US9573954B2, “Pyrazolopyrimidine compounds” (University Health Network, priority 2012, dated 2017)
Like-named read-outs stand apart in the source and are kept apart here.

Experiments:
[1] = tested on: Ovarian 2393A tumor initiating cells; experiment: Tumor-initiating cell growth inhibition, Alamar Blue assay, ovarian TICs; type: cell-based; conditions: 144 h, 6 days, read-out: Tumor Initiating Cell GI50 Range Ovarian 2393A
Description: (§1) Non-tissue or tissue cultured treated T-75 flask and 96-well plates were purchased from VWR. Vitamin B-27 supplement, MEM NEAA (minimum essential medium non essential amino acids), sodium pyruvate, L-glutamine, N2 supplement, penicillin-streptomycin and fungizone/amphotericin B were obtained from Invitrogen. Lipid mixture, heparin and EGF were purchased from Sigma; bFGF from BD Biosciences. Tumor Initiating Cells (TICs) from colon were routinely maintained using non-tissue cultured treated T-75 flasks in DMEM:F12 medium containing 0.2XB-27 supplement, 4 ug/ml heparin, 1×MEM NEAA, 1×sodium pyruvate, 1 mM glutamine, 10 pg/ul bFGF, 20 pg/ul EGF, 1× N2 supplement, lipid mixture, penicillin-streptomycin and fungizone/amphotericin B. Ovarian TICs were routinely maintained using tissue cultured treated T-75 flasks in DMEM:F12 medium containing IXB-27 supplement, 4 ug/ml heparin, 20 pg/ul bFGF, 20 pg/ul EGF and penicillin-streptomycin.
(§2) Compounds described herein were dissolved in DMSO and further diluted in cell culture medium for GI50 determination. Colon TICs were trypsinized and seeded into non-tissue cultured treated 96-well plates with 4,000 cells/well. After 24 h, compound was added into the cell culture at different concentrations, and the final concentration of DMSO was adjusted to 0.1%. Cells were then cultured at 37° C. for 9 days. Ovarian TICs were trypsinized and seeded into tissue cultured treated 96-well plates with 1,000 cells/well. After 24 h, compound was added into the cell culture at different concentrations, and the final concentration of DMSO was adjusted to 0.1%. Cells were then cultured at 37° C. for 6 days. Cell viability was assessed by Alamar Blue assay: 10 ul of Alamar Blue was added into each well. After 4 hours incubation at 37° C., fluorescence was recorded at excitation 544 and emission 590. GI50 (Growth inhibition) was calculated using GraphPad Prism 4.0 software.
(§3) In Table 1 below, GI50 value ranges for compound examples against TICs (Colon 12 and Ovarian 2393A) are given.

[2] = tested on: Colon 12 tumor initiating cells; experiment: Tumor-initiating cell growth inhibition, Alamar Blue assay, colon TICs; type: cell-based; conditions: 216 h, 9 days, read-out: Tumor Initiating Cell GI50 Range Colon 12
Description: as §1, §2, §3

human TTK = target: T1, human TTK (Homo sapiens, UniProt P33981); experiment: TTK inhibition assay (indirect ELISA); type: biochemical; conditions: read-out: TTK IC50 Range
T1 construct: Active TTK was purchased from Invitrogen as an amino terminal GST fusion of full length human TTK; purchased Invitrogen
T1 sequence (P33981 1-857): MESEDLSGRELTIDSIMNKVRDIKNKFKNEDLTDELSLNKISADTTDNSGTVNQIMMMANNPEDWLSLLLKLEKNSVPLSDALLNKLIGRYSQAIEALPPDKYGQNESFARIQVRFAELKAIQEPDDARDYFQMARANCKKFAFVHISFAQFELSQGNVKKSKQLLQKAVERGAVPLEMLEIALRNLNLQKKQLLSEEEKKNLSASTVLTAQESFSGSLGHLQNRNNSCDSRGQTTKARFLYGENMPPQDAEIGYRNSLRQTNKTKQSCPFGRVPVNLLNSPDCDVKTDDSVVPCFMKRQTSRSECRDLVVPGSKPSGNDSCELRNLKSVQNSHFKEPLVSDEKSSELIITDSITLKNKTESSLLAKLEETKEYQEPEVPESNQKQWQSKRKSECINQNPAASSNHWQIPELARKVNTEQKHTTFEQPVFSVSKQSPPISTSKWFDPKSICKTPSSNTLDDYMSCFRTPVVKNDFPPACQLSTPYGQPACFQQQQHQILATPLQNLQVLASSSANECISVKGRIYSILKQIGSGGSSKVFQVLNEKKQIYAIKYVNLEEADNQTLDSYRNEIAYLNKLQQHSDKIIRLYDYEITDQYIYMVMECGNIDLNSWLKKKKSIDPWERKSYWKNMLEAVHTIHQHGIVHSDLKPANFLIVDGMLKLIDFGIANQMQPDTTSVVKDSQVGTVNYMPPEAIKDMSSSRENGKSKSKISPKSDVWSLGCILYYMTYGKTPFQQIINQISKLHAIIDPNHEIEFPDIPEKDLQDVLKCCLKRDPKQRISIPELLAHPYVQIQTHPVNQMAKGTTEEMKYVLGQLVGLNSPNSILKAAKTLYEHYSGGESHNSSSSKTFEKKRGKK
Procedure, shortened: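 Activity detected by indirect ELISA after compounds sat with full-length GST-TTK for 5 min prior to starting the reaction with ATP. IC50 came from a four-parameter logistic curve of % inhibition, calculated against background and uninhibited control wells.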

[3] = tested on: ovarian cancer cells (PA-1); experiment: Cancer cell line growth inhibition, Sulforhodamine B assay, PA-1; type: cell-based; conditions: 120 h; Table 1; PA-1, 5 days, SRB; read-out: Cancer Cell Line GI50 Range PA-1
Experimental: Breast cancer cells (MDA-MB-231 and MDA-MB-468), colon cancer cells (HCT116) and ovarian cancer cells (PA-1 and OVCAR-3) were seeded (1000 to 4000 in 80 μl per well depending on the cell growth rate) into 96 well plates 24 hours before compound overlay. Compounds were prepared as 10 mM stock solutions in 100% DMSO which were diluted with DMEM (Dulbecco's Modified Eagle's Medium) cell growth Medium (Invitrogen, Burlington, ON, Canada) containing 10% FBS (Fetal Bovine Serum) to concentrations ranging from 50 nM to 250 μM. Aliquots (20 μl) from each concentration were overlaid to 80 μl of the pre-seeded cells in the 96 well plates to make final concentrations of 10 nM to 50 μM. The cells were cultured for 5 days before the Sulforhodamine B assay (SRB) was performed to determine the compound's cell growth inhibition activity.
Sulforhodamine B (purchased from Sigma, Oakville, ON, Canada) is a water-soluble dye that binds to the basic amino acids of the cellular proteins. Thus, colorimetric measurement of the bound dye provides an estimate of the total protein mass that is related to the cell number. the cells are fixed in situ by gently aspirating off the culture media and adding 50 μl ice cold 10% Trichloroacetic Acid (TCA) per well and incubate at 4° C. for 30-60 min, The plates are washed with H2O five times and allowed to air dry for 5 min. Addition of 50 μl 0.4% (w/v) SRB solution in 1% (v/v) acetic acid to each well and incubation for 30 min at RT completes the staining reaction. Following staining, plates are washed four times with 1% acetic acid to remove unbound dye and then allowed to air dry for 5 min. The stain is solubilized with 100 μl of 10 mM Tris pH 10.5 per well. Absorbance is read at 570 nm.
The percentage (%) of relative growth inhibition was calculated by comparing to DMSO treated only cells (100%). GI50's were determined for compounds with cytotoxic activity. The GI50 was calculated using GraphPad PRISM software (GraphPad Software, Inc., San Diego, Calif., USA).
In Table 1 below, GI50 value ranges for compound examples against breast cancer cell lines (MDA-MB-468), colon cancer cell lines (HCT116) and ovarian cancer cell lines (PA-1) are given.
In Table 2 below, GI50 value ranges for compound examples against breast cancer cell lines (MDA-MB-231), colon cancer cell lines (HCT116) and ovarian cancer cell lines (PA-1) are given.

[4] = tested on: breast cancer cells (MDA-MB-468); experiment: Cancer cell line growth inhibition, Sulforhodamine B assay, MDA-MB-468; type: cell-based; conditions: Homo sapiens, read-out: Cancer Cell Line GI50 Range MDA-MB-468
Procedure, shortened: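 MDA-MB-468 cells exposed 5 days to compound at final 10 nM to 50 μM in DMEM with 10% FBS. Growth measured by sulforhodamine B protein staining after TCA fixation, absorbance 570 nm; inhibition relative to DMSO-only cells, GI50 determined for cytotoxic compounds.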

[5] = tested on: colon cancer cells (HCT116); experiment: Cancer cell line growth inhibition, Sulforhodamine B assay, HCT116; type: cell-based; conditions: Homo sapiens, read-out: Cancer Cell Line GI50 Range HCT116
Procedure, shortened: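 HCT116 cells, 1000–4000 per well, seeded 24 h ahead, then treated 5 days with compound at 10 nM to 50 μM final in DMEM with 10% FBS. Growth measured by sulforhodamine B staining after TCA fixation, A570; GI50 from inhibition relative to DMSO-only cells.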

[6] = tested on: ovarian cancer cells (OVCAR-3); experiment: Cancer cell line growth inhibition, Sulforhodamine B assay, OVCAR-3; type: cell-based; conditions: Homo sapiens, OVCAR-3, OVCAR-3 ovarian cancer cell line; read-out: Cancer Cell Line GI50 Range OVCAR-3
Procedure, shortened: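 OVCAR-3 cells were seeded 24 h before compound addition, then exposed for 5 days to final concentrations of 10 nM to 50 μM in DMEM with 10% FBS. Growth was measured by TCA fixation and sulforhodamine B staining with absorbance at 570 nm. Inhibition was relative to DMSO-only cells, and GI50 came from curve fitting.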

[7] = Table 1, ovarian TICs, Alamar Blue
[8] = Table 1, colon TICs, Alamar Blue
[9] = MDA-MB-468, 120 h, Table 1, MDA-MB-468, 5 days, SRB
[10] = HCT-116, 120 h, Table 1, HCT116, 5 days, SRB
[11] = MDA-MB-468, MDA-MB-468 breast cancer cell line
[12] = HCT-116, HCT116 colon cancer cell line

| SMILES | GI50 [1, 7] [nM] | GI50 [2, 8] [nM] | IC50 (human TTK; Table 1, 16 μM ATP (asterisk)) [nM] | GI50 [3] [nM] | GI50 [4, 9] [nM] | GI50 [5, 10] [nM] | GI50 ([1]; Ovarian 2393A TICs) [nM] | GI50 ([2]; Colon 12 TICs) [nM] | GI50 [6] [nM] | IC50 (human TTK; 100 μM ATP) [nM] | GI50 [4, 11] [nM] | GI50 [5, 12] [nM] |
| --- | --- | --- | --- | --- | --- | --- | --- | --- | --- | --- | --- | --- |
| Cc1cc(-c2cnn3c(NCC4CCOCC4)nc(Oc4ccccc4)nc23)ccc1C(=O)NC1CC1 [Example A3, N-cyclopropyl-2-methyl-4-(2-phenoxy-4-(((tetrahydro-2H-pyran-4-yl)methyl)amino)pyrazolo[1,5-a][1,3,5]triazin-8-yl)benzamide] | 100 to 500 | ≤ 100 | < 100 | ≤ 100 | ≤ 100 | ≤ 100 |  |  |  |  |  |  |
| O=C(NC1CC1)c1ccc(-c2cnn3c(NCC4CCOCC4)nc(Oc4ccccc4)nc23)cc1Cl [Example A4, 2-Chloro-N-cyclopropyl-4-(2-phenoxy-4-(((tetrahydro-2H-pyran-4-yl)methyl)amino)pyrazolo[1,5-a][1,3,5]triazin-8-yl)benzamide] | 100 to 500 | ≤ 100 | < 100 | 100 to 500 | 100 to 500 | 100 to 500 |  |  |  |  |  |  |
| O=C(NC1CC1)c1ccc(-c2cnn3c(NCC4CCOCC4)nc(Oc4ccccc4)nc23)cc1 [Example A10, N-cyclopropyl-4-(2-phenoxy-4-(((tetrahydro-2H-pyran-4-yl)methyl)amino)pyrazolo[1,5-a][1,3,5]triazin-8-yl)benzamide] |  |  | < 100 | 100 to 500 | > 500 | 100 to 500 |  |  |  |  |  |  |
| O=C(NC1CC1)c1ccc(-c2cnn3c(NCC4CCOCC4)nc(Oc4cccnc4)nc23)cc1 [Example A13, N-cyclopropyl-4-(2-(pyridin-3-yloxy)-4-(((tetrahydro-2H-pyran-4-yl)methyl)amino)-pyrazolo[1,5-a][1,3,5]triazin-8-yl)benzamide] |  |  | < 100 | 100 to 500 | > 500 | > 500 |  |  |  |  |  |  |
| Cc1cc(-c2cnn3c(NCCN4CCC(O)CC4)cc(Oc4cccc(F)c4)nc23)ccc1C(=O)NC1CC1 [Example C182] |  |  |  |  |  |  | ≤ 100 | ≤ 100 | ≤ 100 | < 100 | ≤ 100 | ≤ 100 |
| Cc1cc(-c2cnn3c(NCCN(C)C)cc(Oc4cccc(F)c4)nc23)ccc1C(=O)NC1CC1 [Example C187] |  |  |  |  |  |  | ≤ 100 | ≤ 100 | 100 to 500 | < 100 | ≤ 100 | ≤ 100 |

The next lines start with the values.

| GI50 [1, 7] [nM] | GI50 [2, 8] [nM] | IC50 (human TTK; Table 1, 16 μM ATP (asterisk)) [nM] | GI50 [3] [nM] | GI50 [4, 9] [nM] | GI50 [5, 10] [nM] | GI50 ([1]; Ovarian 2393A TICs) [nM] | GI50 ([2]; Colon 12 TICs) [nM] | GI50 [6] [nM] | IC50 (human TTK; 100 μM ATP) [nM] | GI50 [4, 11] [nM] | GI50 [5, 12] [nM] | SMILES |
| --- | --- | --- | --- | --- | --- | --- | --- | --- | --- | --- | --- | --- |
| 100 to 500 | ≤ 100 | < 100 | ≤ 100 | 100 to 500 | 100 to 500 |  |  |  |  |  |  | Cc1cc(-c2cnn3c(NCC4CCOCC4)nc(NC4CCCC4)nc23)ccc1C(=O)NC1CC1 [Example A2, 4-(2-(Cyclopentylamino)-4-(((tetrahydro-2H-pyran-4-yl)methyl)amino)pyrazolo[1,5-a][1,3,5]triazin-8-yl)-N-cyclopropyl-2-methylbenzamide] |
|  |  | > 500 | > 500 | > 500 | > 500 |  |  |  |  |  |  | O=C(NC1CC1)c1ccc(-c2cnn3c(NCCN4CCOCC4)nc(Oc4cccnc4)nc23)cc1 [Example A8, N-cyclopropyl-4-(4-((2-morpholinoethyl)amino)-2-(pyridin-3-yloxy)pyrazolo[1,5-a][1,3,5]triazin-8-yl)benzamide] |
|  |  | < 100 | 100 to 500 | > 500 | 100 to 500 |  |  |  |  |  |  | O=C(NC1CC1)c1ccc(-c2cnn3c(NCC4CCOCC4)nc(OC4CCCC4)nc23)cc1 [Example A11, 4-(2-(cyclopentyloxy)-4-(((tetrahydro-2H-pyran-4-yl)methyl)amino)pyrazolo[1,5-a][1,3,5]triazin-8-yl)-N-cyclopropylbenzamide] |
|  |  |  |  |  |  | ≤ 100 | ≤ 100 | 100 to 500 | < 100 | 100 to 500 | 100 to 500 | Cc1cc(-c2cnn3c(NC[C@H]4CC[C@H](O)CC4)cc(Oc4cccnc4)nc23)ccc1C(=O)NC1CC1 [Example C177] |
